Experimental data reported in ChEMBL document CHEMBL3414547, “Recent advances of chroman-4-one derivatives: synthetic approaches and bioactivities” (Eur J Med Chem, 2015).
Values after ≈ are worked out from the molar mass of the structure shown.

Tests used:
[1] = test system: Nannizzia gypsea; assay: Antifungal activity against Microsporum gypseum; assay type: functional
[2] = test system: Aspergillus niger; assay: Antifungal activity against Aspergillus niger; assay type: functional
[3] = test system: Candida albicans; assay: Antifungal activity against Candida albicans; assay type: functional
[4] = test system: Staphylococcus aureus; assay: Antibacterial activity against Staphylococcus aureus; assay type: functional
[5] = test system: SK-N-MC; assay: Cytotoxicity against human SK-N-MC cells by MTT assay; assay type: functional, cell-based
[6] = test system: KB; assay: Cytotoxicity against human KB cells by MTT assay; assay type: functional, cell-based
[7] = test system: MDA-MB-231; assay: Cytotoxicity against human MDA-MB-231 cells by MTT assay; assay type: functional, cell-based
[8] = test system: MCF7; assay: Cytotoxicity against human MCF7 cells after 72 hrs by MTT assay; assay type: functional, cell-based; settings: MCF7, 72 h
[9] = test system: T47D; assay: Cytotoxicity against human T47D cells after 72 hrs by MTT assay; assay type: functional, cell-based
[10] = test system: MDA-MB-231; assay: Cytotoxicity against human MDA-MB-231 cells after 72 hrs by MTT assay; assay type: functional, cell-based; settings: MDA-MB-231, 72 h
[11] = test system: SK-N-MC; assay: Cytotoxicity against human SK-N-MC cells after 24 hrs by MTT assay; assay type: functional, cell-based
[12] = test system: MDA-MB-231; assay: Cytotoxicity against human MDA-MB-231 cells after 24 hrs by MTT assay; assay type: functional, cell-based; settings: MDA-MB-231, 24 h
[13] = test system: K562; assay: Cytotoxicity against human K562 cells after 24 hrs by MTT assay; assay type: functional, cell-based; settings: K562, 24 h
[14] = test system: Staphylococcus aureus; assay: Antibacterial activity against methicillin-resistant Staphylococcus aureus 252; assay type: functional
[15] = test system: Nannizzia gypsea; assay: Antifungal activity against Microsporum gypseum PTCC 5070 after 168 hrs by agar dilution method; assay type: functional; settings: PTCC 5070, 168 h
[16] = test system: Aspergillus niger; assay: Antifungal activity against Aspergillus niger PTCC 5012 after 72 hrs by agar dilution method; assay type: functional; settings: PTCC 5012, 72 h
[17] = test system: Candida albicans; assay: Antifungal activity against Candida albicans PTCC 5027 after 24 to 48 hrs by agar dilution method; assay type: functional
[18] = test system: Saccharomyces cerevisiae; assay: Antifungal activity against Saccharomyces cerevisiae PTCC 5177 after 24 to 48 hrs by agar dilution method; assay type: functional
[19] = test system: Saccharomyces cerevisiae; assay: Antifungal activity against Saccharomyces cerevisiae; assay type: functional
[20] = test system: Nannizzia gypsea; assay: Ratio of fluconazole MIC to compound MIC for Microsporum gypseum; assay type: functional
[21] = test system: Aspergillus niger; assay: Ratio of fluconazole MIC to compound MIC for Aspergillus niger; assay type: functional
[22] = test system: Candida albicans; assay: Ratio of fluconazole MIC to compound MIC for Candida albicans; assay type: functional
[23] = test system: Saccharomyces cerevisiae; assay: Ratio of fluconazole MIC to compound MIC for Saccharomyces cerevisiae; assay type: functional
[24] = test system: Mycolicibacterium fortuitum; assay: Antimycobacterial activity against Mycobacterium fortuitum; assay type: functional
[25] = test system: Mycolicibacterium aurum; assay: Antimycobacterial activity against Mycobacterium aurum; assay type: functional
[26] = test system: Mycolicibacterium smegmatis; assay: Antimycobacterial activity against Mycobacterium smegmatis; assay type: functional
[27] = test system: Mycolicibacterium phlei; assay: Antimycobacterial activity against Mycobacterium phlei; assay type: functional
[28] = target: Acetylcholinesterase (Homo sapiens, UniProt P22303); assay: Inhibition of AChE (unknown origin)
Acetylcholinesterase, sequence (P22303 whole entry): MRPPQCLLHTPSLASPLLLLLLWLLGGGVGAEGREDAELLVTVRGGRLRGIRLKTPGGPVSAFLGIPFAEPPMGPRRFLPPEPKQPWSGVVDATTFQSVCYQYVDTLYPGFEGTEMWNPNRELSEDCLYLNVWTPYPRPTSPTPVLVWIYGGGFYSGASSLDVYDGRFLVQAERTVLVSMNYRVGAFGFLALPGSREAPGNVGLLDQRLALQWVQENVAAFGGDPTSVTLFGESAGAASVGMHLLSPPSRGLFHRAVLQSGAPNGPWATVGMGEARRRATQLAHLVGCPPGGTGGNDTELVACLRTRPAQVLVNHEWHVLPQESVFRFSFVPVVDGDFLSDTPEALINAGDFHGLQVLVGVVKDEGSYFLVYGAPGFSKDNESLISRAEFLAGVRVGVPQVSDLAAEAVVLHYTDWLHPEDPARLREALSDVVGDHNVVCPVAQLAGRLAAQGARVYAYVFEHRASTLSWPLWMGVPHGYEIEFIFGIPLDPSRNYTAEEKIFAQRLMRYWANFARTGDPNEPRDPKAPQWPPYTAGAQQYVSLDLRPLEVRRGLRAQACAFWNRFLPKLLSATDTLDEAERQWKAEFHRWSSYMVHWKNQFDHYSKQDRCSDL

[29] = test system: HUVEC; assay: Cytotoxicity against HUVEC by MTT assay; assay type: functional, cell-based; settings: Homo sapiens

## O=[N+]([O-])O.c1ccc(CO/N=C2/c3ccccc3OCC2n2ccnc2)cc1 (stereo not drawn)
[1]
  MIC: 2 µg/mL

## O=[N+]([O-])O.c1ccc(CO/N=C2\c3ccccc3OCC2n2ccnc2)cc1 (stereo not drawn)
[1]
  MIC: 2 µg/mL

## Clc1ccc(CO/N=C2\c3ccccc3OCC2n2ccnc2)cc1Cl.O=[N+]([O-])O (stereo not drawn)
[2]
  MIC: ≤ 1 µg/mL
[3]
  MIC: ≤ 1 µg/mL

## COc1cc(C2CC(=O)c3c(cc(O)c(C/C=C(\C)CCC=C(C)C)c3O)O2)cc(OC)c1O (stereo not drawn)
[4]
  MIC: 4 µg/mL (≈ 8.54 µM)

## COc1ccc2c(c1)OC/C(=C\c1cc(Cl)c(OC)c(OC)c1)C2=O
[5]
  IC50: 7.56 µg/mL (≈ 21 µM)
[6]
  IC50: 7.56 µg/mL (≈ 21 µM)
[7]
  IC50: 7.56 µg/mL (≈ 21 µM)

## O=C1/C(=C/c2ccccc2)COc2cc3c(cc21)OCO3
[8]
  IC50: ≤ 9.3 µg/mL
[9]
  IC50: ≤ 9.3 µg/mL
[10]
  IC50: ≤ 9.3 µg/mL

## COc1cc(/C=C2\COc3cc(O)ccc3C2=O)cc(Br)c1O
[11]
  IC50: ≤ 3.86 µg/mL
[12]
  IC50: ≤ 3.86 µg/mL
[13]
  IC50: ≤ 3.86 µg/mL

## CC(C)=CCC/C(C)=C/Cc1c(C2CC(=O)c3c(O)cc(O)cc3O2)ccc(O)c1O (stereo not drawn)
[4]
  MIC: 16 µg/mL (≈ 37.7 µM)

## C=C(C)C(C)c1cc(C2CC(=O)c3c(O)cc(O)cc3O2)c(OC)cc1O (stereo not drawn)
[14]
  MIC: 16 µg/mL (≈ 43.2 µM)

## C=C(C)C(C)c1cc(C2CC(=O)c3c(O)cc(O)cc3O2)cc(OC)c1O (stereo not drawn)
[14]
  MIC: 16 µg/mL (≈ 43.2 µM)

## CC1Oc2ccccc2/C(=N/Nc2ccccc2)C1n1ccnc1 (stereo not drawn)
[15]
  MIC: 8 µg/mL (≈ 25.1 µM)
[16]
  MIC: 8 µg/mL (≈ 25.1 µM)
[17]
  MIC: 8 µg/mL (≈ 25.1 µM)
[18]
  MIC: 8 µg/mL (≈ 25.1 µM)

## Clc1ccc(CO/N=C2\c3ccc(Cl)cc3OCC2n2cncn2)c(Cl)c1 (stereo not drawn)
[19]
  MIC: 4 µg/mL (≈ 9.44 µM)

## Clc1ccc(CO/N=C2\c3ccccc3OCC2n2cncn2)cc1Cl.O=[N+]([O-])O (stereo not drawn)
[20]
  Ratio: 16
[2]
  MIC: 1 µg/mL
[1]
  MIC: 1 µg/mL
[21]
  Ratio: 16

## C[C@@H]1Oc2cc(Cl)ccc2/C(=N\OCc2ccccc2)[C@H]1n1ccnc1.O=[N+]([O-])O
[22]
  Ratio: 32
[19]
  MIC: 0.5 µg/mL
[1]
  MIC: 1 µg/mL
[23]
  Ratio: 32
[3]
  MIC: 0.25 µg/mL

## C[C@@H]1Oc2ccccc2/C(=N\OCc2ccc(F)cc2)[C@H]1n1ccnc1.O=[N+]([O-])O
[1]
  MIC: 1 µg/mL

## COc1ccc(CC2COc3c(ccc4c3OCO4)C2=O)cc1 (stereo not drawn)
[24]
  MIC: 128 µg/mL (≈ 410 µM)
[25]
  MIC: 32 µg/mL (≈ 102 µM)
[26]
  MIC: 256 µg/mL (≈ 820 µM)
[27]
  MIC: 16 µg/mL (≈ 51.2 µM)

## Nc1oc2ccccc2c(=O)c1/C=C1\COc2ccccc2C1=O
[28]
  IC50: 270 nM

## COc1ccccc1/C=C1\COc2ccccc2C1=O
[29]
  IC50: 19 µM
